This is an account of results in ChEMBL document CHEMBL3638540, “Pyrolinone derivative and pharmaceutical composition comprising the same” (2013).

In this test the target is T1, P2X purinoceptor 3 (Homo sapiens, UniProt P56373).
T1 sequence (P56373 whole entry): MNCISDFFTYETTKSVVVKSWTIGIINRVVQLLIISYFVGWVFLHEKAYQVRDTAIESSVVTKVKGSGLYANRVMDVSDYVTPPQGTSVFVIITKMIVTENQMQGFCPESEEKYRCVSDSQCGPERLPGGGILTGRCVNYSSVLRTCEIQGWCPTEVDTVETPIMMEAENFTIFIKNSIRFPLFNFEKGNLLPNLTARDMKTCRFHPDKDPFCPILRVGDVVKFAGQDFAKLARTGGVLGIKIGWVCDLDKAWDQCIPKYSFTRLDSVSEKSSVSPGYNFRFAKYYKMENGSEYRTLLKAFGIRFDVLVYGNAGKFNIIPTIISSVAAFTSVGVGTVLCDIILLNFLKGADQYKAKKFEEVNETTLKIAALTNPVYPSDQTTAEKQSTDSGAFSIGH
The test is described as follows: Inhibiton Assay: Inhibition assay using human P2X3 receptor gene (GeneBank accession number Y07683).

For `COc1ncccc1C1c2c(n[nH]c2C(C)(C)C)C(=O)N1c1ccc(Br)cc1` (stereo not drawn), the IC50 (commonly the midpoint of a concentration-inhibition curve) came to 811 nM.

As to `COc1ccccc1C1c2c(n[nH]c2C(C)(C)C)C(=O)N1c1ccc(Br)cc1` (stereo not drawn), the IC50 was 238 nM.

`COc1ccccc1C1c2c(n[nH]c2C(C)(C)CO)C(=O)N1c1ccc(Br)cc1` (stereo not drawn) came in with an IC50 of 473 nM.
